Laboratory results: patent US7129271B2, “Compounds for pest control and methods for their use” (The United States of America as represented by the …, priority 2000, dated 2006)
≈ marks a conversion by molar mass, not a printed value. Where two headings read alike, the source gives them in different places.

Experiments:
I. scapularis nymphs = assay: Tick bioassay, modified disposable pipette method, treated vials (Example 9); format: in vivo, Ixodes scapularis; settings: for LC90: read-out: LC90
Method: Tick Colonies. […] There was no known pesticide used at this location. Ticks were maintained at 21° C., 90% RH, and received a 16:8 h (light:dark) cycle as described in […]. Med. […] Tick and Flea Bioassays. […] A control treated with acetone only was run with each series. Tick and flea susceptibility was evaluated using a modified disposable pipette method. See, Barnard, D. R., et al., J. Econ. […] Three to 4 holes were made in the plastic cap to allow for air exchange. Nymphal ticks and adult fleas were then placed directly into the vials using forceps. Vials containing ticks or fleas were placed in desiccators for 24 h at 21° C. and 90% RH. […] For each time point, if ticks were incapable of movement, maintaining normal posture, leg coordination, ability to right themselves, or any signs of life, they were considered moribund or dead.

X. cheopis adults = assay: Flea bioassay, treated vials (Example 9); format: in vivo; settings: 24 h exposure, 95% CI in parentheses; for LC90: read-out: LC90
Method: Flea Colonies. Adult X. cheopis fleas (1–3 wk old) were obtained from a colony founded more than eight years ago using adults received from Tom Schwan, Rocky Mountain Laboratories, Hamilton, Mont. The area from which these original adult fleas were obtained, and the resulting colony, have no known histories of pesticide exposure.
(§1) Tick and Flea Bioassays. Concentrations of the compounds were prepared by 2-fold serial dilutions of a 0.5% (wt:vol) solution of the extracts in acetone. […] A control treated with acetone only was run with each series. Tick and flea susceptibility was evaluated using a modified disposable pipette method. See, Barnard, D. R., et al., J. Econ. Entomol.
(§2) The inner surface of 2-dram friction cap vials were treated with the compound/acetone solution, or acetone only as a control, and left to air-dry overnight. Three to 4 holes were made in the plastic cap to allow for air exchange. Nymphal ticks and adult fleas were then placed directly into the vials using forceps. Vials containing ticks or fleas were placed in desiccators for 24 h at 21° C. and 90% RH. Morbidity and mortality was recorded at 1, 2, 4, 8, and 24 h after initial exposure.

Ae. aegypti adults = assay: Mosquito bottle bioassay (Example 9); format: in vivo; settings: 24 h exposure, 95% CI in parentheses; for EC90: read-out: LC90 (the source's name)
Method: Mosquito Colonies. Aedes aegypti adult mosquitoes were obtained from an existing colony at the Centers for Disease Control and Prevention (CDC), Division of Vector-Borne Infectious Diseases (DVBID), Fort Collins, Colo. This colony has been maintained for over fifteen years with no known history of exposure to pesticides. Mosquitoes were reared at 28° C., 85% RH, and a 14:10 h (light:dark) cycle. Larvae were grown in de-ionized water and fed ground liver powder solution ad libitum. Fourth instars were removed and placed in emergence cages, and adults were fed a 2% sucrose solution until assayed. Adults were exposed to test products at 4–7 d after emergence.
(§3) Mosquit Bioassay. Adult mosquitoes were tested using the bottle bioassay method of Brogden, W. G., and McAllister, J. C., J. Am. Mosq. Control Assoc. 14:159–64 (1998), with minor modifications. Natural product extracts were two-fold serially diluted for a total of 8 concentrations ranging from 0.002% to 0.25% in 1.5 ml of acetone. Individual dilutions were added to 250 ml Wheaton glass bottles and capped. Bottles were manipulated to evenly coat all inner surfaces. The caps were removed and bottles were allowed to air-dry overnight. Once bottles were completely dry, 10–50 adult mosquitoes were aspirated into the bottles. Mosquitoes were held in the bottles for 24 h at 23° C. and 85% RH. Morbidity and mortality were recorded at 15, 30, 45, and 60 min and 24 hour intervals. One bottle for each replicate was treated with acetone only and served as a control. The dose-mortality data was evaluated with probit analysis, using the LdP Line software, to determine LC50 and LC90 values.

Ixodes scapularis nymphs = assay: Residual activity, treated vials aged before loading (Example 9); format: in vivo
Method: as §1, with “acetone. The approximate toxicity of individual compounds was determined with a total of 8 doses ranging from 0.002% to 0.25%.” for “acetone.”, “Entomol. 74:466–69 (1981).” for “Entomol.”
as §2, with “Groups of 10 nymphal I. scapularis and X. cheopis fleas were used in all tests, resulting in a total of 5,240 nymphs and 4,860 fleas exposed to the compounds. The” for “The”

[1] = tested on: Xenopsylla cheopis adults; assay: as above; format: in vivo
Method: as §1, with “acetone. The approximate toxicity of individual compounds was determined with a total of 8 doses ranging from 0.002% to 0.25%.” for “acetone.”, “Entomol. 74:466–69 (1981).” for “Entomol.”
as §2, with “Groups of 10 nymphal I. scapularis and X. cheopis fleas were used in all tests, resulting in a total of 5,240 nymphs and 4,860 fleas exposed to the compounds. The” for “The”

Aedes aegypti adults = assay: Residual activity, treated bottles aged before loading (Example 9); format: in vivo
Method: as §3

[2] = tested on: ticks, fleas, and mosquitoes; assay: Residual activity, overall statements for ticks, fleas and mosquitoes (Example 9); settings: 1 to 4 weeks after treatment
[3] = residual activity at 1 week after treatment
[4] = residual activity at 2 weeks after treatment
[5] = residual activity at 4 weeks after treatment
[6] = Ixodes scapularis, 24 h, 24 h exposure, 95% CI in parentheses
[7] = Xenopsylla cheopis, 24 h, read-out: LC50
[8] = Aedes aegypti, 24 h, read-out: LC50

Structure (SMILES) | LC50 (Ixodes scapularis nymphs; [3]) | LC90 (Ixodes scapularis nymphs; [3]) | LC50 [1, 3] | LC90 [1, 3] | LC50 (Aedes aegypti adults; [3]) | LC90 (Aedes aegypti adults; [3]) | LC50 (Aedes aegypti adults; [4]) | LC90 (Aedes aegypti adults; [4]) | residual activity (in words) [2] | LC50 (I. scapularis nymphs; Ixodes scapularis, 24 h) | LC90 (I. scapularis nymphs; [6]) | LC50 (X. cheopis adults; [7]) | LC90 (X. cheopis adults; Xenopsylla cheopis, 24 h) | LC50 (Ae. aegypti adults; [8]) | EC90 (Ae. aegypti adults; Aedes aegypti, 24 h) | also measured
C=C(C)[C@@H]1CCC2=CC(=O)C[C@@H](C)[C@]2(C)C1 [Compound 9, Nootkatone] | 0.0084 (0.005–0.013) percent concentration, wt:vol | 0.08 (0.045–0.22) percent concentration, wt:vol | 0.043 percent concentration, wt:vol | 0.259 percent concentration, wt:vol | 0.0089 (0.0077–0.01) percent concentration, wt:vol | 0.018 (0.015–0.023) percent concentration, wt:vol | 0.0042 (0.0036– percent concentration, wt:vol | 0.0088 (0.0074–0.011) percent concentration, wt:vol | considerable biological activity |  |  |  |  |  |  | LC50 (I. scapularis nymphs; 24 h exposure, 95% CI in parentheses): 0.0033 (0.0027–0.004) percent concentration, wt:vol; LC50 (X. cheopis adults): 0.0066 (0.0046–0.0086) percent concentration, wt:vol; LC50 (Ae. aegypti adults): 0.0075 percent concentration, wt:vol; LC50 (Ixodes scapularis nymphs; [4]): 0.0089 (0.0068–0.012) percent concentration, wt:vol; LC90 (Ixodes scapularis nymphs; [4]): 0.027 (0.02–0.045) percent concentration, wt:vol; LC50 [1, 4]: 0.027 percent concentration, wt:vol; LC90 [1, 4]: 0.085 percent concentration, wt:vol; LC90 [1, 5]: 0.111 (0.08–0.193) percent concentration, wt:vol; LC50 (Aedes aegypti adults; [5]): 0.018 percent concentration, wt:vol; LC90 (Aedes aegypti adults; [5]): 0.036 percent concentration, wt:vol
C=C(C=O)C1CCC2=CCC[C@@H](C)[C@]2(C)C1 (stereo partly shown) [Compound 15, valencene-13-aldehyde] | 0.026 (0.02–0.033) percent concentration, wt:vol | 0.072 (0.052–0.121) percent concentration, wt:vol | 0.059 percent concentration, wt:vol | 0.148 percent concentration, wt:vol | 0.011 (0.0095–0.013) percent concentration, wt:vol | 0.027 (0.022–0.037) percent concentration, wt:vol | 0.014 (0.0074–0.025) percent concentration, wt:vol | 0.037 (0.029–0.127) percent concentration, wt:vol | considerable biological activity | 59 µg/mL (≈ 270 µM) | 170 µg/mL (≈ 779 µM) | 49 µg/mL (≈ 224 µM) | 85 µg/mL (≈ 389 µM) | 24 µg/mL (≈ 110 µM) | 34 µg/mL (≈ 156 µM) | 
C=C(C)C1CCC23OC2C(=O)C[C@@H](C)[C@]3(C)C1 (stereo partly shown) [Compound 17, nootkatone-1,10-epoxide] |  |  |  |  |  |  |  |  |  | 200 µg/mL (≈ 853 µM) | 550 µg/mL (≈ 2350 µM) | 170 µg/mL (≈ 725 µM) | 590 µg/mL (≈ 2520 µM) | 2230 µg/mL (≈ 9520 µM) | 20000 µg/mL (≈ 85400 µM) | 
C[C@@H]1CC(=O)C2OC23CCC(C2(C)CO2)C[C@@]13C (stereo partly shown) [Compound 18, nootkatone-1,10-11,12-diepoxide] |  |  |  |  |  |  |  |  |  | 610 µg/mL (≈ 2440 µM) | 2450 µg/mL (≈ 9790 µM) | 640 µg/mL (≈ 2560 µM) | 4840 µg/mL (≈ 19300 µM) | 590 µg/mL (≈ 2360 µM) | 1140 µg/mL (≈ 4550 µM) | 
